{"source": "patent US20070105835A1", "about": "“Compositions and methods for modulating poly(ADP-ribose) polymerase activity” (priority 2005, published 2007)", "key": {"[1]": {"test_system": "lymphoblasts derived from HD patients and normal controls", "assay": "ATP levels in oxidant-treated normal and HD lymphoblasts", "type": "cell-based, human", "details": "for rescue of loss of ATP: HD and wild type lymphoblasts, oxidant-treated; for EC50: Homo sapiens, read-out: oxidant concentration for 50% loss of ATP", "description": "(§1) FIGS. 3A-3F. FIG. 3A is a bar graph showing the effect of the PARP-1 inhibitor ANI on ATP levels in one normal (white) and two mutant HD (black) lymphoid cell lines treated with the oxidant (Oxd.) hydrogen peroxide. Lymphoblasts treated (T) with 200 μM oxidant were supplemented with mock inhibitor (DMSO) or with 5 μM PARP-1 inhibitor ANI. FIG. 3B is a bar graph showing the effect of the novel PARP-1 inhibitor K245 on ATP levels in oxidant (Oxd.) treated normal (white) and mutant HD (black) lymphoid cell lines. Hydrogen peroxide was the oxidant. Lymphoblasts treated (T) with 200 μM oxidant were supplemented with mock inhibitor (DMSO) or with 1, 5 or 10 μM PARP-1 inhibitor K245. FIG. 3C is a bar graph showing the effects of various compounds on relative ATP levels in wildtype (white) and mutant HD (black) striatal cells treated with 400 μM hydrogen peroxide. Basal ATP levels in cells untreated with oxidant were 100%. Oxidant-treated cells were supplemented with mock (DMSO) or PARP-1 inhibitors ANI and K245 at concentrations 0.1 μM, 1 μM, and 5 μM; and 1 μM, 5 μM, and 10 μM, respectively. […] FIG. 3D is a bar graph showing the effects of PARP-1 inhibitors ANI and K245 on basal ATP levels in normal (white) and mutant HD (black) lymphoblasts. Cells were supplemented with 5 μM ANI and 10 μM K245. Basal ATP levels in cells supplemented with mock (DMSO) were 100%. Cells were not treated with oxidant. FIG. 3E is a bar graph showing the effects of PARP-1 inhibitors on ATP levels in untreated striatal cells and in striatal cells treated with the mitochondrial blocker 3-NP. Wildtype cells are indicated by white bars and mutant HD cells are indicated by black bars. Untreated wildtype and mutant HD cells were supplemented with 5 μM ANI or 10 μM K245. Basal ATP levels in cells supplemented with mock (DMSO) were 100%. Cells treated with 5 μM 3-NP were supplemented with mock (DMSO), 1 or 5 μM ANI, or 1 μM, 5 μM, or 10 μM K245. FIG. 3F is a bar graph showing PARP-1 activity levels in untreated wildtype (7Q) and mutant HD (111Q) striatal cells, and in normal (30Q) and mutant HD (63Q) lymphoblasts."}, "[2]": {"test_system": "PC12 cell-line expressing fragments of mutant Htt protein", "assay": "oxidant (hydrogen peroxide)-mediated ATP loss and cell death in PC12 cells expressing mutant Htt fragments", "type": "cell-based", "description": "To investigate the impact of oxidative stress on HD cells we measured ATP levels in lymphoblasts derived from HD patients and normal controls. ATP levels were measured using a commercially available-luciferase substrate. The luciferase enzyme uses ATP as a cofactor to produce one photon of light per substrate molecule (e.g., luciferin). The detectable output is luminescence. There is a linear relationship between the amount of signal output and the amount of ATP present in the sample. Thus, the amount of ATP present in a sample can be directly correlated with the measured output.\nTo investigate the basis for the hypersensitivity of mutant cells to oxidative stress, we employed a chemical biological approach and screened for small molecules capable of preventing an unsustainable loss of ATP in HD mutant cells. We developed an assay to measure oxidative stress-dependent ATP loss and subsequent cell-death. […] In addition, amino groups of each of CGI and K245-14 were predicted to form hydrogen bonds with Ser243 and Gly202 of PARP1.\nTo confirm that inhibition of PARP-1 activity could protect cells from ATP depletion, we tested two known enzyme inhibitors in PC12 cells challenged with oxidative stress. The PC12 cell line expressed fragments of mutant Htt protein as described above. […] Maintenance of ATP levels rescued by the PARP-1 inhibitors was dependent on the severity of cellular oxidation (FIG. 2A)."}, "[3]": {"test_system": "striatal cells derived from Huntingtin double knock-in mutant and wildtype transgenic mice", "assay": "ATP levels in oxidant-treated wildtype and mutant HD striatal cells", "type": "cell-based, mouse", "details": "for rescue of loss of ATP: mutant and wild type striatal cells, oxidant-treated; for EC50: read-out: oxidant concentration for 50% loss of ATP; for loss of ATP from basal ATP levels: 500 μM oxidant", "description": "as §1"}, "recombinant PARP-1": {"target": "recombinant PARP-1 (Homo sapiens, UniProt P09874)", "sequence (P09874 whole entry)": "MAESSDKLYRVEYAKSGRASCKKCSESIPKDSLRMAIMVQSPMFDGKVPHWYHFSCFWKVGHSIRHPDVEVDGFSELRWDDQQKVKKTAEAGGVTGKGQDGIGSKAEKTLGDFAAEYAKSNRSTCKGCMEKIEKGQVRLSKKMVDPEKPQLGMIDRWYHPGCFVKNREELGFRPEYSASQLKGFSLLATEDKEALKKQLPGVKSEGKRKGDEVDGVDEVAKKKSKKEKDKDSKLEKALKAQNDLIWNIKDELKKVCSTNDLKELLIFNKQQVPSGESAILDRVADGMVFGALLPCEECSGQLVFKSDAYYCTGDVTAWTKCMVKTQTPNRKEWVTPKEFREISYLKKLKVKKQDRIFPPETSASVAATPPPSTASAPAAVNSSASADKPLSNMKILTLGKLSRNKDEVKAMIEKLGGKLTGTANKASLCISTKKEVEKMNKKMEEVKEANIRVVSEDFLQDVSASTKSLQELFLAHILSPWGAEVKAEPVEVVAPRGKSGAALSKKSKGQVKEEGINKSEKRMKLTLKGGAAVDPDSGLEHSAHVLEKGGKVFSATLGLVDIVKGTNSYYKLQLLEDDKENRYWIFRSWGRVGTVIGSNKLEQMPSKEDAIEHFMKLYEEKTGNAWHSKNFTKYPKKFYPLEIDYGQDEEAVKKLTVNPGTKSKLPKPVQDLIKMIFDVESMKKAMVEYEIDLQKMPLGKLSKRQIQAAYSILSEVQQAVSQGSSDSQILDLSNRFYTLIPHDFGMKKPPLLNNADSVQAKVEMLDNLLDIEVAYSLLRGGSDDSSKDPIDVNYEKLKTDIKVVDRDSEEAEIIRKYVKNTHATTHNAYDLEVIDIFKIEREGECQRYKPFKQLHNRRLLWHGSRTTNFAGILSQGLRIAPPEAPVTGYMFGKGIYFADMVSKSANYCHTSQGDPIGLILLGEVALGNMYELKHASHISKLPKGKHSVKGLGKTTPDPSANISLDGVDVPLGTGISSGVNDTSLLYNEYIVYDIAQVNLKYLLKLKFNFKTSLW", "assay": "in vitro PARP-1 enzyme inhibition assay", "type": "biochemical", "description": "FIGS. 2A-2F. FIG. 2A is a bar graph showing ATP levels in PC12 cells treated with the oxidant (Oxd.), hydrogen peroxide, in the absence (white) and in the presence (gray) of the PARP-1 inhibitor (ANI). FIG. 2B is a graph showing relative ATP levels in PC12 cells treated with hydrogen peroxide in the absence (solid line) and in the presence (dashed line) of 5 μM PARP-1 inhibitor ANI. FIG. 2C is a bar graph showing ATP levels in PC12 cells either untreated (U) or treated (T) with 200 μM oxidant and supplemented with the compounds indicated at the concentrations indicated. […] The IC50 of each inhibitor, determined by in vitro assay, is also shown. […] FIG. 2E is a bar graph showing the effect of different compounds on recombinant PARP-1 activity in vitro. PARP-1 enzymatic activities were determined in the absence (white) or presence (gray) of the testing compounds. […] FIG. 2F is a graph showing the calculated IC50 of inhibitor K245.\n(See, e.g., Jagtap and Szabo, Nat Rev Drug Discov. 4:421-440, 2005; Ha and Snyder, Proc Natl Acad Sci USA. 96: 13978-13982, 1999; and Ying et al., Proc Natl Acad Sci USA 98:12227-12232, 2001). To test the effect of the compounds on PARP1 activity, an in vitro PARP-1 assay was used.\nIdentification of structural analogs. […] PARP-1 activity in the presence of decreasing concentrations of three different inhibitors is shown in the graph in FIG. 6."}, "α-synuclein toxicity": {"test_system": "α-synuclein toxicity", "assay": "Parkinson's Disease alpha-synuclein toxicity assay", "type": "cell-based", "source_text": "Alpha-synuclein toxicity assays can also be used to identify compounds that positively impact cell survival and/or function. […] As noted, Parkinson's Disease is among the indications for the present compositions."}, "[4]": {"details": "text and figure legend, read-out: IC50 for PARP-1 inhibition in vitro"}, "[5]": {"details": "Table 3, in vitro enzyme inhibition, read-out: IC50"}}, "note": "“Also recorded” adds a separate entry of the source. Read-outs that look alike come from different tables or passages of the source."}
{"smiles": "Nc1ccc2c3c(cccc13)C(=O)NC2=O", "note": "[4-ANI]", "values": [{"measurement": "rescue of loss of ATP", "setting": "[1]", "result": "rescued loss of ATP"}, {"measurement": "rescue of oxidant-mediated ATP loss and cell death", "setting": "[2]", "result": "protected high levels of cellular ATP"}, {"measurement": "rescue of loss of ATP", "setting": "[3]", "result": "rescued loss of ATP"}]}
{"smiles": "Nc1ccc2c3c(cccc13)C(=O)N2", "note": "[CG1]", "values": [{"measurement": "IC50", "setting": "recombinant PARP-1; [4]", "result": 2.5, "unit": "µM"}, {"measurement": "rescue of oxidant-mediated ATP loss and cell death", "setting": "[2]", "result": "rescued oxidant-mediated ATP loss and cell death"}]}
{"smiles": "CCN1C(=O)c2cccc3c(N)ccc1c23", "note": "[CG3, reference compound]", "values": [{"measurement": "PARP-1 inhibition", "setting": "recombinant PARP-1; result in words", "result": "did not show any PARP-1 inhibition activity; also recorded: failed to inhibit PARP-1 activity"}, {"measurement": "rescue of oxidant-mediated ATP loss and cell death", "setting": "[2]", "result": "did not protect cells from oxidative stress"}]}
{"smiles": "CCN(CC)CCNC(=O)c1ccc2c(c1)NC(=O)c1ccccc1N2", "note": "[K245-14]", "values": [{"measurement": "IC50", "setting": "recombinant PARP-1; [4]", "result": 2, "unit": "µM"}, {"measurement": "rescue of loss of ATP", "setting": "[1]", "result": "rescued loss of ATP"}, {"measurement": "protective effect in α-synuclein toxicity assay", "setting": "α-synuclein toxicity", "result": "small but reproducible protective effects"}, {"measurement": "rescue of oxidant-mediated ATP loss and cell death", "setting": "[2]", "result": "rescued oxidant-mediated ATP loss and cell death"}, {"measurement": "rescue of loss of ATP", "setting": "[3]", "result": "rescued loss of ATP"}]}
{"smiles": "COc1ccc(N2CCN(C(=O)c3ccc4c(c3)NC(=O)c3ccccc3N4)CC2)cc1", "note": "[K245-39A]", "values": [{"measurement": "IC50", "setting": "recombinant PARP-1; [5]", "result": 5.5, "unit": "µM"}]}
{"smiles": "O=C1Nc2cc(C(=O)N3CCN(Cc4ccccc4)CC3)ccc2Nc2ccccc21", "note": "[K245-42]", "values": [{"measurement": "IC50", "setting": "recombinant PARP-1; [5]", "result": 2.2, "unit": "µM"}]}
{"smiles": "O=C1Nc2cc(C(=O)N3CCCC3)ccc2Nc2ccccc21", "note": "[K245-80]", "values": [{"measurement": "IC50", "setting": "recombinant PARP-1; [5]", "result": 3.5, "unit": "µM"}]}
{"smiles": "O=C1Nc2cc(C(=O)N3CCN(c4ccc(Cl)cc4)CC3)ccc2Nc2ccccc21", "note": "[K245-88]", "values": [{"measurement": "IC50", "setting": "recombinant PARP-1; [5]", "result": 0.15, "unit": "µM"}]}
{"smiles": "O=C1Nc2cc(C(=O)N3CCN(c4ccccc4F)CC3)ccc2Nc2ccccc21", "note": "[K245-89]", "values": [{"measurement": "IC50", "setting": "recombinant PARP-1; [5]", "result": 0.55, "unit": "µM"}]}
{"smiles": "COC(CNC(=O)c1ccc2c(c1)NC(=O)c1ccccc1N2)OC", "note": "[K245-95]", "values": [{"measurement": "IC50", "setting": "recombinant PARP-1; [5]", "result": 2, "unit": "µM"}]}
{"smiles": "CCN(CCCNC(=O)c1ccc2c(c1)NC(=O)c1ccccc1N2)c1cccc(C)c1", "note": "[K245-99]", "values": [{"measurement": "IC50", "setting": "recombinant PARP-1; [5]", "result": 4, "unit": "µM"}]}
{"smiles": "OO", "note": "[hydrogen peroxide]", "values": [{"measurement": "EC50", "setting": "[1]; mutant HD lymphoblasts", "result": 60, "unit": "µM"}, {"measurement": "EC50", "setting": "[1]; normal lymphoblasts", "result": 120, "unit": "µM"}, {"measurement": "EC50", "setting": "[3]; Mus musculus, mutant HD striatal cells", "result": 410, "unit": "µM"}, {"measurement": "EC50", "setting": "[3]; Mus musculus, wildtype striatal cells", "result": 550, "unit": "µM"}, {"measurement": "EC50", "setting": "[3]; mutant HD striatal cells", "result": 420, "unit": "µM"}, {"measurement": "loss of ATP from basal ATP levels", "setting": "[3]; mutant striatal cells", "result": 80, "unit": "%"}, {"measurement": "loss of ATP from basal ATP levels", "setting": "[3]; wildtype striatal cells", "result": 20, "unit": "%"}]}
